According to US9718836B2 (priority 2014, dated 2017):
Where “and” joins values, the source holds several entries; their conditions need not be identical. Identical values can stand only once.

Tests used:
[1] = system: antibodies in the antisera; type: binding, Balb/c mice
[2] = system: antibodies in the antisera; type: binding, Balb/c mice; remark: listed apart in the source

With aflatoxin B2 the Absorbance [1] was 1.08 and 1.06 and 0.99 and 1.07 and 1.01 and 1.02 and 1.04.
In the case of aflatoxin G1, the Absorbance [1] is reported as 1.07 and 1.05 and 1.01 and 0.98 and 1.04 and 1.09 and 1.11.
For aflatoxin G2, the Absorbance [1] was 1.03 and 1.04 and 1.05 and 1.01 and 1.09 and 1.02 and 1.10.
COc1cc2c(c3oc4cccc(O)c4c(=O)c13)[C@@H]1C=CO[C@@H]1O2 [aflatoxin biosynthetic precursor ST, Sterigmatocystin] was tested, and the “IC50 value of the antibody for the aflatoxin biosynthetic precursor ST” value [2] was 0.41 ng/mL.
